Experimental data taken from US9499790B2, “Method for promoting differentiation of pluripotent stem cells into cardiac muscle cells” (Kyoto University, priority 2010, dated 2016).
Blank lines part the entries; values can stand above or below the molecule they belong to.

How the values were obtained:
[1] = tested on: Wnt signaling target genes in human iPS cells; assay: Gene expression analysis by DNA array and quantitative polymerase chain reaction; format: cell-based; settings: FIG. 9
Description: (in the order of the genes whose expression were reduced most 12 hours later) HOXA1, MSGN1, NKD1, T, TNFRSF11B, DKK1, DKK4, CDX2, MSX1, NODAL, FGF4, PAPPA, PRRX1, LRAT, CYP1B1, SLC34A2, AXIN2, LGL1, SPS, MIXL1, APCDD1 and DSEL. […] The analyzed genes were as follows: MSGN1, HOXA1; T, MIXL1; Dkk1, AXIN2; NODAL and FGF4 (all known as Wnt signaling target genes).

[2] = tested on: Monkey ES cells; assay: Cardiac muscle cell differentiation of monkey ES cells, 6-well plate, GFP expression observed at day 14; format: cell-based
Text: In the same manner as Example 2, the effects of promoting cardiac muscle cell differentiation were compared among KY02111 and N11474, known Wnt signaling inhibitors (IWP2, XAV939 and IWR1), proteins known to be effective in promoting cardiac muscle cell differentiation (G-CSF, IGFBP4, Dkk1 and cytokines (a mixture of bFGF, BMP4, VEGF, DKK1 and Activin A)).
The effect of BIO, a Wnt signaling activator, on the effect of promoting cardiac muscle cell differentiation of KY02111, XAV939 and IWP2 was analyzed. […]

[3] = tested on: monkey ES cells (CMK 6.4 cynomolgus monkey ES cell line); assay: Cardiac muscle cell differentiation of monkey ES cells, compound day 4 to 8, GFP fluorescence at day 10 (MetaMorph); format: cell-based; settings: for effect of promoting cardiac muscle cell differentiation, carbon chain length (n) series: FIG. 16; for effect of promoting cardiac muscle cell differentiation, SO2031 versus SO3042: 0.4 μM and 2 μM, separate experiment; for effect compared to SO3031 (KY01-I): low dose (0.1 μM)
Text: Compounds substituted at the position R7 of Formula 1, which corresponds to Cl of KY02111, were synthesized and examined for the effect of promoting cardiac muscle cell differentiation in a dose-dependent manner in monkey ES cells as described in Example 2. Specifically, a vector expressing green fluorescent protein (GFP) under control of promoter of α-MHC gene, a marker of cardiac muscle cell differentiation, was introduced into monkey ES cells (CMK 6.4 cynomolgus monkey ES cell line) and the cells were seeded on 6-well culture plates (Asahi Glass/5816-006: Ezview culture plate) in 4.0×10^5 cells/well, and cultured in an IMDM-based differentiation medium for cardiac muscle cells (200 ml IMDM (Sigma) containing 50 ml bovine fetal serum (GIBCO), 2.5 ml MEM non-essential amino acid solution (Sigma), 2.5 ml penicillin-streptomycin (GIBCO), 2.5 ml 200 mM L-glutamine, 2 μl 2-mercaptoethanol). Each compound was added to the cells during day 4 to day 8 of the cardiac muscle cell differentiation culture, and the GFP fluorescence was analyzed at day 10 by using MetaMorph imaging system.

[4] = tested on: human ES cells (KhES-3); assay: Percentage of cardiac muscle cells by flow cytometry with cardiac troponin T (cTnT) antibody; format: cell-based; settings: 2 μM during days 3-8; 3 μM CHIR99021 first two days; without compound 17.9%
Description: (§1) The effect of promoting cardiac muscle cell differentiation of SO2031 (KY02-I) was confirmed using human ES cells (KhES-3) and iPS cells (IMR90-1) (FIG. 19). Induction of cardiac muscle cell differentiation was performed as described previously (Cell Reports, Volume 2, Issue 5, 1448-1460, 25 Oct. 2012). Specifically, IMDM (Sigma) containing 1% MEM non-essential amino acid solution (Sigma), 1% penicillin-streptomycin (Gibco), 2 mM L-glutamine (Sigma), 0.5 mM L-carnitine (Sigma), 0.001% 2-mercaptoethanol (Gibco), and 0.4% human serum albumin (Sigma) was used for culture. Cardiac muscle cell differentiation was induced in Ultra-low attachment culture dish (Corning) by floating culture. During the first two days, 3 μM CHIR99021, a WNT activator, was added, and during days 3-8 of culture, 2 μM SO2031 (KY02-I) was added. Efficiency of cardiac muscle cell differentiation was determined by calculating the percentage of cardiac muscle cells by flow cytometry using an antibody for cardiac troponin T (cTnT), a cardiac-specific marker molecule.

[5] = tested on: human iPS cells (IMR90-1); assay: as above; format: cell-based; settings: 2 μM during days 3-8; 3 μM CHIR99021 first two days; without compound 3.7%
Description: as §1

[6] = Solubility in medium (observation of crystals); format: physicochemical; settings: after 24 hours
Description: SO2031 (KY02-I) was dissolved in 20% serum-containing medium (200 ml IMDM (Sigma) containing 50 ml bovine fetal serum (GIBCO), 2.5 ml MEM non-essential amino acid solution (Sigma), 2.5 ml penicillin-streptomycin (GIBCO), 2.5 ml 200 mM L-glutamine, 2 μl 2-mercaptoethanol) at 20 μM, and in serum-free medium (200 ml IMDM (Sigma) containing 2.5 ml MEM non-essential amino acid solution (Sigma), 2.5 ml penicillin-streptomycin (GIBCO), 2.5 ml 200 mM L-glutamine, 2 μl 2-mercaptoethanol) at 3 or 20 μM and observed after 24 hours (FIG. 20). […] As the compound is not crystallized, the concentration of the compound in the medium is stably maintained. Also, there is no possibility that the crystals affect the cells, and there is no risk that the crystals remained in the cells are transferred to and affect the host at transplantation.

[7] = nitrovin 1 μM during day 8 to 12, singly

Compound: Oc1nc(-c2ccc(C(F)(F)F)cc2)nc2c1CSCC2 [XAV939, reference compound]
expressions of MSGN1, HOXA1, T, MIXL1, Dkk1, AXIN2, NODAL and FGF4 (Wnt signaling target genes) by qPCR [1]: reduced
effect of BIO on the compound's effect of cardiac muscle cell differentiation (GFP expression) ([2]; BIO 5 μM added together with the compound during day 4 to 10, GFP at day 14): inhibited

Compound: COc1ccc(CC(=O)Nc2nc3ccc(I)cc3s2)cc1OC [SO3031, 2-(2-(3,4-dimethoxyphenyl)acetamide)-6-iodobenzothiazole]
effect of promoting cardiac muscle cell differentiation, carbon chain length (n) series [3]: higher effect compared to KY02111

crystals in medium ([6]; 20% serum-containing medium at 20 μM, serum-free medium at 3 or 20 μM): Large crystals were not observed
crystals in medium ([6]; serum-free medium, 3 μM): almost no crystal was observed
Compound: COc1ccc(CCC(=O)Nc2nc3ccc(I)cc3s2)cc1OC [SO2031, 2-(3-(3,4-dimethoxyphenyl)propanamid)-6-iodobenzothiazole]
effect of promoting cardiac muscle cell differentiation, times higher than that of KY02111 ([3]; 0.1 μM): about 16 times
effect of promoting cardiac muscle cell differentiation, times higher than that of SO087 ([3]; 0.1 μM): about 5.2 times
effect of promoting cardiac muscle cell differentiation, SO2031 versus SO3042 ([3]; 0.1 μM, FIG. 17): comparable effect
effect of promoting cardiac muscle cell differentiation, times higher than that of KY02111 ([3]; 1 μM): ~6.3 times
effect of promoting cardiac muscle cell differentiation, times higher than that of SO087 ([3]; 1 μM): ~2 times
effect of promoting cardiac muscle cell differentiation, times higher than that of KY02111 ([3]; 10 μM): ~2.1 times
effect of promoting cardiac muscle cell differentiation, times higher than that of SO087 ([3]; 10 μM): ~1.6 times
effect of promoting cardiac muscle cell differentiation, times higher than that of KY02111 ([3]; 30 μM): ~1.5 times
effect of promoting cardiac muscle cell differentiation, times higher than that of SO087 ([3]; 30 μM): ~1.1 times
effect of promoting cardiac muscle cell differentiation, carbon chain length (n) series [3]: higher effect compared to KY02111
effect compared to SO3031 (KY01-I) [3]: 2.7 times
ratio of cardiac muscle cells (cTnT) [4]: 77.9%
ratio of cardiac muscle cells (cTnT) [5]: 56.8%

Compound: COc1ccc(CCCC(=O)Nc2nc3ccc(I)cc3s2)cc1OC [SO3042, 2-(4-(3,4-dimethoxyphenyl)butamide)-6-iodobenzothiazole]
effect of promoting cardiac muscle cell differentiation, SO2031 versus SO3042 ([3]; 0.1 μM, FIG. 17): comparable effect
effect of promoting cardiac muscle cell differentiation, carbon chain length (n) series [3]: higher effect compared to KY02111
effect compared to SO2031 (KY02-I) ([3]; high dose (10 μM or 30 μM)): 1.3 times
effect of promoting cardiac muscle cell differentiation, SO3042 versus SO2031 ([3]; higher dose (10 μM), FIG. 17): slightly higher than that of SO2031
effect compared to SO3031 (KY01-I) [3]: 2.8 times

Compound: N=C(N)NN=C(/C=C/c1ccc([N+](=O)[O-])o1)/C=C/c1ccc([N+](=O)[O-])o1 [nitrovin, reference compound]
increase in the GFP expression level ([2]; 5 μM during day 8 to 14, GFP at day 14): about 400%
increase in the GFP expression level versus Control (DMSO) [2, 7]: about 3 times
proportion of beating colonies [2, 7]: about 16%
ratio of number of GFP colonies [2, 7]: about 22%
